Activity calls are given as the source filed them. No rule for the calls is given here.
Target: Bcl-2-related protein A1 (Homo sapiens) (UniProt Q16548)
Experiment: Bfl-1/Bim complex disruptors – biochemical, multiplexed, bead-based flow cytometry, dose response (AID 1320); as to percent span (inhibition): test concentration not given here
Settings: Bim peptide-Bfl-1 binding, fluorescence; for percent span (inhibition): stronger effect = higher value

Sequence of Bcl-2-related protein A1 (Homo sapiens) (Q16548 whole entry, looked up): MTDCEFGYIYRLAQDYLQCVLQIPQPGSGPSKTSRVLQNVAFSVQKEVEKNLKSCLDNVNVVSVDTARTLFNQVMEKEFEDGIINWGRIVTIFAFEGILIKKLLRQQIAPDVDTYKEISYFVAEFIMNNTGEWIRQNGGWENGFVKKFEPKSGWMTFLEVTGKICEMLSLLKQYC

Compound | percent span (inhibition) | EC50
O=C(Cc1ccccc1)N/N=C/c1cccn1-c1ccc([N+](=O)[O-])cc1 | inactive | –
CN1/C(=C\C(=O)Nc2ccc(Cl)cc2)C(C)(C)c2ccccc21 | inactive | –
O=C(O)/C=C/C(=O)NNC(=O)c1ccc(Br)cc1 | inactive | –
COC(=O)C1C2c3ccccc3OC1(C)N=c1s/c(=C/c3cnn(C)c3C)c(=O)n12 (stereo not given) | inactive | –
COc1ccc(OCCNC(=O)c2ccccc2OCC(=O)N2CCCCC2)cc1 | inactive | –
CN(C)/C=C/C(=O)c1ccc(C(F)(F)F)cc1F | inactive | –
COC(=O)CCC(=O)Nc1sc(C)c(C)c1C(N)=O | inactive | –
COC(=O)c1cccc(-n2c(C)cc(C=O)c2C)c1 | inactive | –
COc1cccc(/C=N/Nc2nn3cnnc3c3ccccc23)c1O | inactive | –
S=C1NC2=C(CCC/C2=C\c2ccccc2)C(c2ccccc2)N1 (stereo not given) | inactive | –
COc1ccc(N2C(=O)C(Cl)=C(Nc3ccccc3O)C2=O)cc1 | inactive | –
Cc1ccc(-c2cc(C(=O)Nc3cc(C(=O)O)ccc3C)c3ccccc3n2)cc1 | inactive | –
Cc1c(N2C(=O)c3ccc4c5c(ccc(c35)C2=O)CC4)c(=O)n(-c2ccccc2)n1C | inactive | –
Brc1ccc2ncnc(Nc3ccc(N4CCOCC4)cc3)c2c1 | inactive | –
CCn1c(SCC(=O)Nc2ccccc2-c2ccccc2)nnc1-c1ccoc1C | inactive | –
Cc1cc(C)nc(/N=C(\N)N2CCc3ccccc32)n1 | inactive | –
Cc1ccnc(NS(=O)(=O)c2ccc(NS(=O)(=O)c3cccs3)cc2)n1 | inactive | –
COc1cc(/C=N/Nc2nc3c(c(=O)n(C)c(=O)n3C)n2Cc2ccccc2)ccc1OC(=O)c1ccco1 | inactive | –
N#C/C(=C(/O)CN1CCN(c2ccccc2F)CC1)c1nc(-c2ccccc2)cs1 | inactive | –
Cc1cc(C)n(CC(=O)N/N=C/c2cccc([N+](=O)[O-])c2)n1 | inactive | –

Compound | percent span (inhibition) | EC50
Cn1cccc1CC(=O)N/N=C\c1ccccc1 | inactive | –
CCOC(=O)c1c(NC(=O)c2ccccc2N(C)S(=O)(=O)c2ccccc2)sc2c1CCCC2 | inactive | –
CC(C)(C)C(=O)NC(NC(=S)Nc1ccc(S(N)(=O)=O)cc1)C(Cl)(Cl)Cl (stereo not given) | inactive | –
COc1ccc(N=C2NC(=O)/C(=C\C=C\c3ccco3)S2)cc1 | inactive | –
Cc1ccc(C(NC(=O)C(C)C)c2cc([N+](=O)[O-])c3cccnc3c2O)cc1 (stereo not given) | inactive | –
Cn1c(OCc2cccnc2)nc2c1c(=O)n(Cc1ccccc1)c(=O)n2C | inactive | –
CCc1ccc(NC(=O)Cc2ccc(OC)cc2)cc1 | inactive | –
CCOc1cc(/C=C2/N=C(C)C(C(=O)OC)=C2O)ccc1O | inactive | –
O=C(O)CC1S/C(=N/N=C/C=C/c2ccccc2[N+](=O)[O-])NC1=O (stereo not given) | inactive | –
Cc1ccc(-c2cc(-c3ccccc3)c(C#N)c(N)n2)o1 | inactive | –
O=C1C(=O)c2ccc(-c3ccccc3)cc2-c2ccccc21 | inactive | –
CCOC(=O)c1nc(Nc2ccc(N3CCC(C)CC3)cc2)c2ccccc2n1 | inactive | –
CCN(CC)c1ccc(NC(=O)c2cccc(C)c2)cc1S(=O)(=O)Nc1ccccc1OC | inactive | –
Cc1cnnn1-c1ccc(C(=O)CCl)cc1 | inactive | –
CCC(=O)N(CC)C1=C(O)c2ccccc2C(=O)C1=O | – | 80 nM
Cc1ccc(NC(=O)c2cc(S(=O)(=O)NCCC3=CCCCC3)ccc2F)cc1F | inactive | –
COc1ccc2nc(C)cc(SCC(=O)N/N=C/c3ccc(O)cc3O)c2c1 | inactive | –
O=C(C1=NN[C@@H]2C(=O)N(c3ccccc3C(F)(F)F)C(=O)[C@H]12)c1ccc2ccccc2n1 | inactive | –
COc1ccc(N2CCN(C(CNS(=O)(=O)c3ccc4c(c3)OCCO4)c3ccco3)CC2)cc1 (stereo not given) | inactive | –
Cc1c(NC2=C(Cl)C(=O)N(c3ccccc3)C2=O)c(=O)n(-c2ccccc2)n1C | – | inactive

Compound | percent span (inhibition) | EC50
Cc1cc(NC(=O)CSc2nnc(-c3cccnc3)n2Cc2ccccc2)no1 | inactive | –
O=C(c1cnccn1)N(Cc1cccs1)C1(C(=O)NC2CCCCC2)CCCCC1 | inactive | –
C/C(=N\NC(=O)COc1ccc(C(C)(C)C)cc1)c1ccc2c(c1)OCCO2 | inactive | –
Cc1cccc(C(=O)N2CCC(c3nc(-c4ccc(S(=O)(=O)N5CCOCC5)cc4)no3)CC2)c1 | inactive | –
Cc1cc(Cl)c(S(=O)(=O)NCC2CCCO2)cc1OCC(N)=O (stereo not given) | inactive | –
Cc1ccc(NC(=S)N2CCn3cccc3C2c2cccnc2)cc1 (stereo not given) | inactive | –
O=C1c2ccccc2C(=O)N1CN(C(=O)COc1ccc(Cl)cc1Cl)c1cccc(F)c1 | inactive | –
c1ccc(-c2nc(N3CCCCC3)nc3ccccc23)cc1 | inactive | –
CC(C)n1nnnc1SCC(=O)N1CCN(C(=O)c2ccco2)CC1 | inactive | –
Cn1c(N)c(C(=O)COC(=O)c2cc(-c3ccco3)nc3ccccc23)c(=O)n(Cc2ccccc2)c1=O | inactive | –
COC(=O)Cc1ccc(NC(=S)N2CCN(c3cccc(O)c3)CC2)cc1 | inactive | –
CN(C)C(Cc1ccccc1)C(=O)c1cccs1 (stereo not given) | inactive | –
CCSc1nnc(NC(=O)c2c(-c3ccccc3Cl)noc2C)s1 | inactive | –
COc1cc(/C=N/Nc2nn3cnnc3c3ccccc23)ccc1O | inactive | –
COc1ccc(N2CC(C(=O)Nc3nnc(SCC(=O)c4ccccc4)s3)CC2=O)cc1 (stereo not given) | inactive | –
O=S1(=O)N=C(N(CCO)/N=C/C=C/c2ccccc2)c2ccccc21 | inactive | –
CCSc1ncnc2sc(C)c(C)c12 | inactive | –
OCCN1CCN(CCCc2c3c(cc4c2CCC4)CCC3)CC1 | inactive | –
O=C(/C=C/c1ccc(-c2ccccc2)o1)c1ccccc1 | inactive | –
COc1cc(NC(=S)NCCCO)c(OC)cc1Cl | inactive | –
